Experiment [1] has as its target T1, Acetylcholinesterase (Bos taurus, UniProt P23795).
T1 sequence (P23795 whole entry): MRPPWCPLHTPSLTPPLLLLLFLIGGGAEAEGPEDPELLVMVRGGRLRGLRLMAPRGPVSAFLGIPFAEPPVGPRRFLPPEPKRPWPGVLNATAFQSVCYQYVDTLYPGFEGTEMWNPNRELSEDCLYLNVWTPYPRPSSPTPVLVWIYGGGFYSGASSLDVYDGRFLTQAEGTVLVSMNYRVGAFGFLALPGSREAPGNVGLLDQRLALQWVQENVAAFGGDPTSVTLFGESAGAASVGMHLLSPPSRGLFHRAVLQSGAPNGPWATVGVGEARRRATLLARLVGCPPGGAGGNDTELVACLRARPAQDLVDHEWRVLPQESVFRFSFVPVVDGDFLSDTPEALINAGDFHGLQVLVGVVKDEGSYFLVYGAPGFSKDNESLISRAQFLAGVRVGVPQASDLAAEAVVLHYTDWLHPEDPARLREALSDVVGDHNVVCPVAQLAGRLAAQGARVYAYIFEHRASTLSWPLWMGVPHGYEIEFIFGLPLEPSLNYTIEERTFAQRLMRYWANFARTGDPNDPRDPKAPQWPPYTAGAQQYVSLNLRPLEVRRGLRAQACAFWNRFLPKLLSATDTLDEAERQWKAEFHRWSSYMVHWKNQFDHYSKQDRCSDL
Description: Inhibition of bovine erythrocyte AChE by Ellman's assay

Experiment [2] has as its target Acetylcholinesterase (Homo sapiens, UniProt P22303).
Description: Inhibition of human erythrocyte AChE by Ellman's assay
Another experiment deals with Cholinesterase (Homo sapiens, UniProt P06276).

pIC50: −log10 of the molar value.

Chain of Cholinesterase (P06276 whole entry): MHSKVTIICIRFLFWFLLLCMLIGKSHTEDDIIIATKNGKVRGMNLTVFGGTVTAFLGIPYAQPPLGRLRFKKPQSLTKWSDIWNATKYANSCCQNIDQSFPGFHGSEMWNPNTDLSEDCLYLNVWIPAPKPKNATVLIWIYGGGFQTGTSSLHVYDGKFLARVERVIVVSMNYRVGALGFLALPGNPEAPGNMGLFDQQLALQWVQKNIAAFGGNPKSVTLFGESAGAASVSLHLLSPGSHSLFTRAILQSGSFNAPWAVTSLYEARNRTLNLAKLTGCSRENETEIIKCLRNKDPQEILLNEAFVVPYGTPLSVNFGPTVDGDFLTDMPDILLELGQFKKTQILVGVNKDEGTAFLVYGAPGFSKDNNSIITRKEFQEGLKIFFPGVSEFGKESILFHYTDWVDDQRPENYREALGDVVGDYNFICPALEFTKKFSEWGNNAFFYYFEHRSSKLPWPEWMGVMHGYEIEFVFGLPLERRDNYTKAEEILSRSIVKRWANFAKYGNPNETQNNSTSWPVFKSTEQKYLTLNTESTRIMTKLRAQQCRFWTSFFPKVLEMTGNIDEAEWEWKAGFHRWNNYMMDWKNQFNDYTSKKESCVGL
Chain of Acetylcholinesterase (Homo sapiens, UniProt P22303) (P22303 whole entry): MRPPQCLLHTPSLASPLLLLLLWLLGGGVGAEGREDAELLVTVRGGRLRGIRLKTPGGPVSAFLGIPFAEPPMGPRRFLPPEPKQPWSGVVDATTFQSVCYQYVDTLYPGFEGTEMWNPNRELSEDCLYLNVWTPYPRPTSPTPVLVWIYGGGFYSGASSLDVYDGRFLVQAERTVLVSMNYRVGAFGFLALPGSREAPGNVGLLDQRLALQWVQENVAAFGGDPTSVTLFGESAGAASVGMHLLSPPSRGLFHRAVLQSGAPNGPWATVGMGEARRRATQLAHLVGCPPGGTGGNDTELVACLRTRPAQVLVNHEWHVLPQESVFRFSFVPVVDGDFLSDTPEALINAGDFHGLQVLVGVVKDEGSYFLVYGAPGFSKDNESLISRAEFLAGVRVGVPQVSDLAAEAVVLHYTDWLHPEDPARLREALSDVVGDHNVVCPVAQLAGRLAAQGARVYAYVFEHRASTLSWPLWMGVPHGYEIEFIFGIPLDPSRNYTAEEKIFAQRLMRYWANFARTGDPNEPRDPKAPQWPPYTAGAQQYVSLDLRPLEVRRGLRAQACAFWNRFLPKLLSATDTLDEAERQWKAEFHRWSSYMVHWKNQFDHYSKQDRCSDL

For `COc1cc2c(cc1OC)CC(CC1CCN(CCNc3c4c(nc5ccccc35)CCCC4)CC1)C2`, the negative logarithm of the IC50 (pIC50) is 8.64 against Acetylcholinesterase [1], 8.29 against Acetylcholinesterase [2] and 8.09 against Cholinesterase.

For `COc1cc2c(cc1OC)CC(CC1CCN(CCCNc3c4c(nc5ccccc35)CCCC4)CC1)C2`, the pIC50 was 9.09 against Acetylcholinesterase [1], 8.67 at Acetylcholinesterase [2] and 8.14 on Cholinesterase.

`COc1cc2c(cc1OC)CC(CC1CCN(CCNc3c4c(nc5cc(Cl)ccc35)CCCC4)CC1)C2`: the values for the pIC50 against Acetylcholinesterase [1], at Acetylcholinesterase [2] and at Cholinesterase were 8.73, 8.59 and 7.05, respectively.

Turning to `COc1cc2c(cc1OC)C(=O)C(CC1CCN(CCNc3c4c(nc5cc(Cl)ccc35)CCCC4)CC1)C2` (configuration not stated), the pIC50 was 9.24 on Acetylcholinesterase [1], 9.17 against Acetylcholinesterase [2] and 6.87 on Cholinesterase.

As for `COc1cc2c(cc1OC)C(=O)C(CC1CCN(CCCNc3c4c(nc5cc(Cl)ccc35)CCCC4)CC1)C2` (configuration not stated), the negative logarithm of the IC50 (pIC50) against Cholinesterase is 7.18.

`COc1cc2c(cc1OC)C(=O)C(CC1CCN(CCCNc3c4c(nc5ccccc35)CCCC4)CC1)C2` (configuration not stated): the negative logarithm of the IC50 (pIC50) against Acetylcholinesterase [1] was 9.54; at Acetylcholinesterase [2], 9.06; against Cholinesterase, 7.91.

Regarding `COc1cc2c(cc1OC)CC(CC1CCN(CCCNc3c4c(nc5cc(Cl)ccc35)CCCC4)CC1)C2`, the pIC50 was 9.09 at Acetylcholinesterase [1], 8.97 on Acetylcholinesterase [2] and 7.14 against Cholinesterase.

The compound `Nc1c2c(nc3cc(Cl)ccc13)CCCC2` had a pIC50 against Acetylcholinesterase [1] of 8.24.

On to `COc1cc2c(cc1OC)CC(CC1CCN(Cc3ccccc3)CC1)C2`, for which the pIC50 was 5.84 against Acetylcholinesterase [1] and 5.19 at Cholinesterase.
